# Assays:
# [1] = Example 4: capromorelin concentration in serum; format: in vivo; conditions: Days 1 and 7, 3 mg/kg once or twice daily
# Method: (§1) A controlled, seven-day study was performed to assess the impact of different capromorelin-dosing regimens on the production of IGF-1, GH, and cortisol. The different capromorelin-dosing regimens were also assessed for the impact on food intake and changes in body mass.
# (§2) […] were divided into one of three treatment groups, with one negative control group and two active treatment groups. Each of the three treatment groups included three males and three females. The first group received a placebo formulation (i.e., deionized water) twice per day, via oral gavage. The second group received a once-daily dose of the capromorelin composition at a concentration of 3 mg/kg, via oral gavage. The third group received a twice-daily dose of the capromorelin composition at a concentration of 3 mg/kg, via oral gavage.
# (§3) During the ten day study period, on an at least once-daily basis, each of the dogs was monitored for clinical observations, mortality, moribundity, body mass, acceptability/palatability, and food consumption. Serum samples were taken to measure capromorelin concentration, GH concentration, IGF-1 concentration, and cortisol concentration. Serum samples were taken on days 1, 2, 4, and 7 at −15 minutes (pre-dose), immediately prior to dosing (0 minutes) and 30, 45, 60, 90, 120, 240, 360, and/or 480 minutes post dosing. […]
# [2] = Example 1: capromorelin concentration in serum; format: in vivo
# Method: A controlled, seven-day study was performed to assess the impact of different capromorelin-dosing regimens on the production of insulin-like growth factor 1 (hereinafter “IGF-1”), growth hormone (hereinafter “GH”), and cortisol. The different capromorelin-dosing regimens were also assessed for the impact on food intake and changes in body mass.
# Eighteen adult non-naïve Beagle dogs (nine males and nine females) were divided into one of three treatment groups. Each of the three treatment groups included three males and three females. Group A, which was the control group, was dosed twice per day, via oral gavage, with a vehicle (deionized water alone) and was used as a baseline data point for comparison against the active treatment regimens. Group B comprised an active treatment group that received two treatments per day, via oral gavage, with a capromorelin-containing composition with a concentration of 3 mg/kg capromorelin per treatment. Finally, Group C comprised an active treatment group that received one treatment per day, via oral gavage, with a capromorelin-containing composition with a concentration of 6 mg/kg capromorelin per treatment.
# During the ten day study period, on an at least once-daily basis, each of the dogs was monitored for clinical observations, mortality, morbidity, body mass, and food consumption. Serum samples were taken to measure capromorelin concentration, GH concentration, IGF-1 concentration, and cortisol concentration. Serum samples were taken on days 1, 2, 4, and 7 at −15 minutes (pre-dose), immediately prior to dosing (0 minutes) and 30, 45, 60, 90, 120, 240, 360, and/or 480 minutes post dosing. Additional blood samples were taken at 8 AM on Day 10 of the study to assess long-term impact of the active treatments.
# [3] = Example 5 seven-day study with flavored Formulation 9: food consumption and body weight; format: in vivo, Beagle dogs; conditions: for more food consumed, Day 7 compared with Day −1: oral syringe, Formulation 9
# Method: In order to further refine the dosing regimen that would provide an appropriate blood profile of capromorelin and desired results from the perspective of increased food intake and weight gain, an additional series of experiments were conducted. In these experiments, twenty-four adult (male and female) Beagle dogs weighing approximately 9 to 13 kilograms were randomly divided into four groups. Group 1 received a placebo formulation, without any active compound, two times per day; Group 2 received a composition comprising 3 mg/kg of body weight of capromorelin one time per day; Group 3 received a composition comprising 4.5 mg/kg of body weight of capromorelin one time per day; and Group 4 received a composition comprising 3 mg/kg of body weight of capromorelin two times per day.
# In particular, on the first day of dosing, Day 1, through the last day of dosing, Day 7, the compositions were orally administered (i.e., using a syringe) to the animals in a flavored formulation of the following composition: […]
# In these experiments, the animals were orally administered the flavored formulation at approximately 8:00 AM and, for Group 4 only, again at 6:00 PM. The animals were fed at 10:00 AM beginning seven days prior to Day 1 and continuing for the duration of the study. The animals were offered twice the normal amount of food. Approximately two hours after the food offering, the remainder was removed and weighed to assess food intake. This restricted feeding regime was started at Day −7 to allow the animals to transition to a normal feed intake before the study was initiated. Food consumption was calculated and recorded on Days −7 through Day 7. Baseline food consumption was calculated for each individual dog as the average number of grams of food consumed on Days −3, −2, and −1. The study period food consumption was calculated for each individual dog as the average of Days 1 through 7. Body weights were collected on Days −1, 3, and 7. Blood was collected for measurements of capromorelin, growth hormone, cortisol, and IGF-1 concentrations on Days 1, 4, and 7 at about 15 minutes pre-administration, immediately prior to dosing (0 minutes), 30, 45, 60, 90, 120, 240, 360, and/or 480 minutes post dosing via the jugular or other accessible vessel. As reflected by the data in FIGS. 61-74, the animals' response to the capromorelin-containing composition is largely in accord with the results discussed above.
# GH = test: Example 4: serum GH concentration; format: in vivo, Beagle dogs; conditions: once-daily or twice-daily 3 mg/kg, approximately 0.5 h, days 1, 4, 7
# Method: as §1, §2, §3
# [4] = Days 1 and 7, 3 mg/kg twice daily or 6 mg/kg once daily oral gavage
smiles,measurement,setting,value
CN1N=C2CCN(C(=O)[C@@H](COCc3ccccc3)NC(=O)C(C)(C)N)C[C@@]2(Cc2ccccc2)C1=O.O=C(O)C(O)C(O)C(=O)O [capromorelin],serum capromorelin by eight hours after administration,[1],decreased to near undetectable levels
same,time after dosing at which serum capromorelin begins rising,[1],approximately 0.5 h
same,serum capromorelin by eight hours after dosing (480 minutes),[2]; [4],decreased to near undetectable levels
same,time after dosing at which serum capromorelin concentrations spike,[2]; [4],approximately 0.5 h
same,"serum capromorelin concentration, 6 mg/kg dose relative to twice-daily 3 mg/kg dose",[2]; oral gavage,about 2.3 fold
same,"Comparison of Weight on Day −1 to Weight on Day 7 (X ± SD, %)","[3]; Group 2, 3 mg/kg 1x per day",4.52 ± 1.67%
same,"more food consumed, Day 7 compared with Day −1","[3]; Group 2, 3 mg/kg one time per day",42.7%
same,"Comparison of Weight on Day −1 to Weight on Day 7 (X ± SD, %)","[3]; Group 3, 4.5 mg/kg 1x per day",3.78 ± 2.93%
same,"more food consumed, Day 7 compared with Day −1","[3]; Group 3, 4.5 mg/kg one time per day",34.5%
same,"Comparison of Weight on Day −1 to Weight on Day 7 (X ± SD, %)","[3]; Group 4, 3 mg/kg 2x per day",4.17 ± 1.35%
same,"more food consumed, Day 7 compared with Day −1","[3]; Group 4, 3 mg/kg two times per day",31.5%
same,GH levels in the serum after dosing,GH,marked increase

# From patent US11090292B2, “Compositions and methods of use of an inappetance-controlling compound” (Aratana Therapeutics, Inc., priority 2012, dated 2021)
